From patent US20210353579A1, “HIGH PENETRATION COMPOSITIONS AND USES THEREOF” (Techfields Pharma Co., Ltd., priority 2006, published 2021)

Experiments:
[1] = test system: Human breast cancer cells (BCAP-37); assay: Human breast cancer xenograft in nude mice, topical; conditions: day 42; 30 μl of 5% (1.5 mg) topically every 8 hours from day 14; control 800 ± 100
Procedure, shortened: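 BCAP-37 tumour tissue (2-3 mm^3) was xenografted subcutaneously into the front leg of nude BALB mice, 7 per group. Compounds were applied topically as 30 μl of 5% solution (1.5 mg) in acetone or water.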

[2] = test system: Human colon cancer cells (LS174J); assay: Human colon cancer xenograft in nude mice, topical; conditions: day 30, about 30 μl of 5% solution (1.5 mg) topically applied
From the text: Human colon cancer cells (LS174J, 2-3 mm^3 of tumor tissue was used in each mouse) are subcutaneously xenografted into the front leg of nude mice (BALB).

[3] = test system: rats (SLAC/GK, type 2 diabetes); assay: Blood lipid in type 2 diabetes rats, oral with food; format: in vivo, rat
Procedure, shortened: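 Compounds (dosed equivalent to 20 mg/kg of NSAIAs) mixed in food and given orally daily for 5 weeks to rats (n=7). Non-fasting blood glucose measured every 3 days at 3 pm from week 2 to week 5; blood lipids measured at end of week 5.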

Chinese white rabbits = assay: Autologous blood clot pulmonary embolization, thrombus propagation; format: in vivo, rabbit; conditions: 20 mg/kg topically, after 2 days
Experimental: Eighteen Chinese White rabbits weighing between 3.0 and 3.5 kg (aged 6-7 months) were selected and divided into three groups (control, P-1 and […] groups, n=6). One hour before the experiment, thrombi were made by aspirating venous blood (1 ml) into a sterilized bottle to clot. To avoid fragmentation and slow lysis, the autologous blood clots were stabilized in temperature-controlled (70° C.) distilled water for 10 min. After anesthesia, the femoral veins were exposed and distally isolated, and autologous blood clots (0.05 g/kg) were injected through an indwelling catheter (20 GA), which had been placed in the femoral vein isolated earlier. 50% acetone solution of diethylaminoethyl acetylsalicylate.acetylsalicylic acid salt (P-1, in acetone, 20 mg/kg) and diethylaminoethyl acetylsalicylsalicylate. acetylsalicylsalicylic acid salt (P-59, 20 mg/kg) were topically applied to the back of the rabbits. After 2 days, rabbits were euthanized with an excessive intravenous injection of sodium amobarbital (60 mg/kg). The lungs and hearts were isolated to observe whether thrombi were present in the pulmonary arteries. The lungs were immersed in 10% formalin for 24 h. Consecutive transverse sections along the obstructed pulmonary arteries were paraffin-embedded and stained with hematoxylin-eosine. […]

[4] = baseline, equal to 20 mg/kg of NSAIAs
[5] = end of the fifth week, equal to 20 mg/kg of NSAIAs every day

In the case of CC(=O)Oc1ccccc1C(=O)O.CCN(CC)CCOC(=O)c1ccccc1OC(C)=O [P-1, diethylaminoethyl acetylsalicylate.acetylsalicylic acid salt], the Tumor size [1] was 150 ± 50 mm^3, the Tumor size [2] was 420 ± 100 mm^3 and the “Cholesterol (HDL), Baseline” value [3, 4] was 1.5 ± 0.2 mmol/L. The “Cholesterol (total), Baseline” value [3, 4] was 7.6 ± 0.4 mmol/L, the “Triglycerides, Baseline” value [3, 4] was 5.7 ± 0.5 mmol/L and the “Cholesterol (HDL), Average” value [3, 5] was 1.6 ± 0.2 mmol/L. For the same compound, the “Cholesterol (total), Average” value [3, 5] was 4.1 ± 0.3 mmol/L, the “Triglycerides, Average” value [3, 5] was 1.4 ± 0.2 mmol/L and the “lung tissue and vascular walls (thrombus propagation)” value (Chinese white rabbits) was “both lung tissue and vascular walls were normal”.
